Measured values as given in ChEMBL document CHEMBL4020788, “Synthesis, SAR and molecular docking studies of benzo[d]thiazole-hydrazones as potential antibacterial and antifungal agents” (2017).
Converted amounts (≈) assume the structure as drawn.

How the values were obtained:
Format in all cases: functional
[1] = system: Klebsiella pneumoniae; assay: Antibacterial activity against Klebsiella pneumoniae at 75 ug/ml after 24 hrs by agar well diffusion method; conditions: read-out: DIZ
[2] = system: Staphylococcus aureus; assay: Antibacterial activity against Staphylococcus aureus incubated for overnight by microdilution method
[3] = system: Escherichia coli; assay: Antibacterial activity against Escherichia coli at 25 ug/ml after 24 hrs by agar well diffusion method; conditions: read-out: DIZ
[4] = system: Aspergillus niger; assay: Antifungal activity against Aspergillus niger at 50 ug/ml after 48 hrs by agar well diffusion method; conditions: read-out: DIZ
[5] = system: Fusarium verticillioides; assay: Antifungal activity against Fusarium moniliforme at 50 ug/ml after 48 hrs by agar well diffusion method; conditions: read-out: DIZ
[6] = system: Fusarium oxysporum; assay: Antifungal activity against Fusarium oxysporum at 100 ug/ml after 48 hrs by agar well diffusion method; conditions: read-out: DIZ
[7] = system: Fusarium verticillioides; assay: Antifungal activity against Fusarium moniliforme after 48 to 72 hrs by microdilution method
[8] = system: Fusarium verticillioides; assay: Antifungal activity against Fusarium moniliforme at 75 ug/ml after 48 hrs by agar well diffusion method; conditions: read-out: DIZ
[9] = system: Bacillus subtilis; assay: Antibacterial activity against Bacillus subtilis at 25 ug/ml after 24 hrs by agar well diffusion method; conditions: read-out: DIZ
[10] = system: Staphylococcus aureus; assay: Antibacterial activity against methicillin resistant Staphylococcus aureus MRSA090 at 50 ug/ml after 24 hrs by agar well diffusion method; conditions: MRSA090, 24 h, read-out: DIZ
[11] = system: Escherichia coli; assay: Antibacterial activity against Escherichia coli incubated for overnight by microdilution method
[12] = system: Escherichia coli; assay: Antibacterial activity against Escherichia coli at 100 ug/ml after 24 hrs by agar well diffusion method; conditions: read-out: DIZ
[13] = system: Staphylococcus aureus; assay: Antibacterial activity against methicillin resistant Staphylococcus aureus MRSA090 at 75 ug/ml after 24 hrs by agar well diffusion method; conditions: MRSA090, 24 h, read-out: DIZ
[14] = system: Aspergillus niger; assay: Antifungal activity against Aspergillus niger at 100 ug/ml after 48 hrs by agar well diffusion method; conditions: read-out: DIZ
[15] = system: Aspergillus niger; assay: Antifungal activity against Aspergillus niger after 48 to 72 hrs by microdilution method
[16] = system: Fusarium oxysporum; assay: Antifungal activity against Fusarium oxysporum at 50 ug/ml after 48 hrs by agar well diffusion method; conditions: read-out: DIZ
[17] = system: Aspergillus niger; assay: Antifungal activity against Aspergillus niger at 25 ug/ml after 48 hrs by agar well diffusion method; conditions: read-out: DIZ
[18] = system: Staphylococcus aureus; assay: Antibacterial activity against Staphylococcus aureus at 25 ug/ml after 24 hrs by agar well diffusion method; conditions: read-out: DIZ
[19] = system: Klebsiella pneumoniae; assay: Antibacterial activity against Klebsiella pneumoniae at 25 ug/ml after 24 hrs by agar well diffusion method; conditions: read-out: DIZ
[20] = system: Bacillus subtilis; assay: Antibacterial activity against Bacillus subtilis at 100 ug/ml after 24 hrs by agar well diffusion method; conditions: read-out: DIZ
[21] = system: Aspergillus niger; assay: Antifungal activity against Aspergillus niger at 75 ug/ml after 48 hrs by agar well diffusion method; conditions: read-out: DIZ
[22] = system: Bacillus subtilis; assay: Antibacterial activity against Bacillus subtilis at 50 ug/ml after 24 hrs by agar well diffusion method; conditions: read-out: DIZ
[23] = system: Klebsiella pneumoniae; assay: Antibacterial activity against Klebsiella pneumoniae at 50 ug/ml after 24 hrs by agar well diffusion method; conditions: read-out: DIZ
[24] = system: Staphylococcus aureus; assay: Antibacterial activity against methicillin resistant Staphylococcus aureus MRSA090 at 100 ug/ml after 24 hrs by agar well diffusion method; conditions: MRSA090, 24 h, read-out: DIZ
[25] = system: Fusarium oxysporum; assay: Antifungal activity against Fusarium oxysporum at 25 ug/ml after 48 hrs by agar well diffusion method; conditions: read-out: DIZ
[26] = system: Escherichia coli; assay: Antibacterial activity against Escherichia coli at 50 ug/ml after 24 hrs by agar well diffusion method; conditions: read-out: DIZ
[27] = system: Escherichia coli; assay: Antibacterial activity against Escherichia coli at 75 ug/ml after 24 hrs by agar well diffusion method; conditions: read-out: DIZ
[28] = system: Fusarium oxysporum; assay: Antifungal activity against Fusarium oxysporum at 75 ug/ml after 48 hrs by agar well diffusion method; conditions: read-out: DIZ
[29] = system: Bacillus subtilis; assay: Antibacterial activity against Bacillus subtilis at 75 ug/ml after 24 hrs by agar well diffusion method; conditions: read-out: DIZ
[30] = system: Fusarium verticillioides; assay: Antifungal activity against Fusarium moniliforme at 25 ug/ml after 48 hrs by agar well diffusion method; conditions: read-out: DIZ
[31] = system: Staphylococcus aureus; assay: Antibacterial activity against Staphylococcus aureus at 50 ug/ml after 24 hrs by agar well diffusion method; conditions: read-out: DIZ
[32] = system: Klebsiella pneumoniae; assay: Antibacterial activity against Klebsiella pneumoniae incubated for overnight by microdilution method
[33] = system: Staphylococcus aureus; assay: Antibacterial activity against methicillin resistant Staphylococcus aureus MRSA090 at 25 ug/ml after 24 hrs by agar well diffusion method; conditions: MRSA090, 24 h, read-out: DIZ
[34] = system: Staphylococcus aureus; assay: Antibacterial activity against Staphylococcus aureus at 100 ug/ml after 24 hrs by agar well diffusion method; conditions: read-out: DIZ
[35] = system: Staphylococcus aureus; assay: Antibacterial activity against Staphylococcus aureus at 75 ug/ml after 24 hrs by agar well diffusion method; conditions: read-out: DIZ
[36] = system: Fusarium oxysporum; assay: Antifungal activity against Fusarium oxysporum after 48 to 72 hrs by microdilution method
[37] = system: Klebsiella pneumoniae; assay: Antibacterial activity against Klebsiella pneumoniae at 100 ug/ml after 24 hrs by agar well diffusion method; conditions: read-out: DIZ
[38] = system: Bacillus subtilis; assay: Antibacterial activity against Bacillus subtilis incubated for overnight by microdilution method
[39] = system: Fusarium verticillioides; assay: Antifungal activity against Fusarium moniliforme at 100 ug/ml after 48 hrs by agar well diffusion method; conditions: read-out: DIZ
[40] = system: Staphylococcus aureus; assay: Antibacterial activity against methicillin resistant Staphylococcus aureus MRSA090 incubated for overnight by microdilution method

SMILES: Cc1cccc2nc(N/N=C/c3cccs3)sc12
- zone of inhibition at 75 µg/mL [1]: 18 mm
- MIC [2]: 32 µg/mL (≈ 117 µM)
- zone of inhibition at 25 µg/mL [3]: 10 mm
- zone of inhibition at 50 µg/mL [4]: 15 mm
- zone of inhibition at 50 µg/mL [5]: 9 mm
- zone of inhibition at 100 µg/mL [6]: 30 mm
- MIC [7]: 28 µg/mL (≈ 102 µM)
- zone of inhibition at 75 µg/mL [8]: 12 mm
- zone of inhibition at 25 µg/mL [9]: 10 mm
- zone of inhibition at 50 µg/mL [10]: 16 mm
- MIC [11]: 35 µg/mL (≈ 128 µM)
- zone of inhibition at 100 µg/mL [12]: 22 mm
- zone of inhibition at 75 µg/mL [13]: 22 mm
- zone of inhibition at 100 µg/mL [14]: 26 mm
- MIC [15]: 30 µg/mL (≈ 110 µM)
- zone of inhibition at 50 µg/mL [16]: 24 mm
- zone of inhibition at 25 µg/mL [17]: 11 mm
- zone of inhibition at 25 µg/mL [18]: 12 mm
- zone of inhibition at 25 µg/mL [19]: 7 mm
- zone of inhibition at 100 µg/mL [20]: 24 mm
- zone of inhibition at 75 µg/mL [21]: 21 mm
- zone of inhibition at 50 µg/mL [22]: 15 mm
- zone of inhibition at 50 µg/mL [23]: 11 mm
- zone of inhibition at 100 µg/mL [24]: 28 mm
- zone of inhibition at 25 µg/mL [25]: 21 mm
- zone of inhibition at 50 µg/mL [26]: 14 mm
- zone of inhibition at 75 µg/mL [27]: 18 mm
- zone of inhibition at 75 µg/mL [28]: 29 mm
- zone of inhibition at 75 µg/mL [29]: 21 mm
- zone of inhibition at 25 µg/mL [30]: 7 mm
- zone of inhibition at 50 µg/mL [31]: 18 mm
- MIC [32]: 26 µg/mL (≈ 95.1 µM)
- zone of inhibition at 25 µg/mL [33]: 13 mm
- zone of inhibition at 100 µg/mL [34]: 28 mm
- zone of inhibition at 75 µg/mL [35]: 24 mm
- MIC [36]: 23 µg/mL (≈ 84.1 µM)
- zone of inhibition at 100 µg/mL [37]: 21 mm
- MIC [38]: 26 µg/mL (≈ 95.1 µM)
- zone of inhibition at 100 µg/mL [39]: 15 mm
- MIC [40]: 20 µg/mL (≈ 73.2 µM)

SMILES: Cc1cccc2nc(N/N=C/c3cc4ccccc4[nH]3)sc12
- zone of inhibition at 75 µg/mL [1]: 18 mm
- MIC [2]: 24 µg/mL (≈ 78.3 µM)
- zone of inhibition at 25 µg/mL [3]: 17 mm
- zone of inhibition at 50 µg/mL [4]: 19 mm
- zone of inhibition at 50 µg/mL [5]: 14 mm
- zone of inhibition at 100 µg/mL [6]: 36 mm
- MIC [7]: 24 µg/mL (≈ 78.3 µM)
- zone of inhibition at 75 µg/mL [8]: 9 mm
- zone of inhibition at 25 µg/mL [9]: 10 mm
- zone of inhibition at 50 µg/mL [10]: 23 mm
- MIC [11]: 24 µg/mL (≈ 78.3 µM)
- zone of inhibition at 100 µg/mL [12]: 33 mm
- zone of inhibition at 75 µg/mL [13]: 27 mm
- zone of inhibition at 100 µg/mL [14]: 30 mm
- MIC [15]: 25 µg/mL (≈ 81.6 µM)
- zone of inhibition at 50 µg/mL [16]: 24 mm
- zone of inhibition at 25 µg/mL [17]: 12 mm
- zone of inhibition at 25 µg/mL [18]: 14 mm
- zone of inhibition at 25 µg/mL [19]: 4 mm
- zone of inhibition at 100 µg/mL [20]: 21 mm
- zone of inhibition at 75 µg/mL [21]: 24 mm
- zone of inhibition at 50 µg/mL [22]: 14 mm
- zone of inhibition at 50 µg/mL [23]: 9 mm
- zone of inhibition at 100 µg/mL [24]: 30 mm
- zone of inhibition at 25 µg/mL [25]: 17 mm
- zone of inhibition at 50 µg/mL [26]: 24 mm
- zone of inhibition at 75 µg/mL [27]: 30 mm
- zone of inhibition at 75 µg/mL [28]: 31 mm
- zone of inhibition at 75 µg/mL [29]: 19 mm
- zone of inhibition at 25 µg/mL [30]: 8 mm
- zone of inhibition at 50 µg/mL [31]: 18 mm
- MIC [32]: 25 µg/mL (≈ 81.6 µM)
- zone of inhibition at 25 µg/mL [33]: 16 mm
- zone of inhibition at 100 µg/mL [34]: 30 mm
- zone of inhibition at 75 µg/mL [35]: 24 mm
- MIC [36]: 22 µg/mL (≈ 71.8 µM)
- zone of inhibition at 100 µg/mL [37]: 24 mm
- MIC [38]: 25 µg/mL (≈ 81.6 µM)
- zone of inhibition at 100 µg/mL [39]: 22 mm
- MIC [40]: 22 µg/mL (≈ 71.8 µM)
